# Measurements reported in US20050049276A1, “Imidazopyridines and triazolopyridines” (WARNER-LAMBERT COMPANY, LLC, priority 2003, published 2005).
# Counter-ions that a name gives are not always drawn. Like-named read-outs stand apart in the source and are kept apart here.
# What was measured:
# [1] = test system: MEK (phosphorylation of MAP kinase (ERK) in murine colon 26 (C26) carcinoma cells); experiment: Cellular inhibition of ERK phosphorylation, pERK ELISA format (C26ELSA); format: cell-based; details: Mus musculus, 1 h, one hour treatment
# Excerpt: Otherwise, percent inhibitions at measured concentrations are reported.
# [2] = test system: MEK (phosphorylation of MAP kinase (ERK) in murine colon 26 (C26) carcinoma cells); details: read-out: C26CPA1 IC50, one hour treatment
# Protocol: Since ERK1 and ERK2 represent the only known substrates for MEK1 and MEK2, the measurement of inhibition of ERK phosphorylation in cells provides direct read out of cellular MEK inhibition by the compounds of the invention. Detection of phosphorylation of ERK was carried out either by Western blot or ELISA format. […] Supernatants were then subjected to gel electrophoresis and hybridized to a primary antibody recognizing dually phosphorylated ERK1 and ERK2. To evaluate total MAPK levels, blots were subsequently ‘stripped’ and re-probed with a 1:1 mixture of polyclonal antibodies recognizing unphosphorylated ERK1 and ERK2. For pERK ELISA assay, pERK TiterZyme Enzyme immunometric Assay kits were acquired from Assay Designs, Inc (Ann Arbor, Mich.). Briefly, cells were harvested in lysis solution containing 50 mM β-glycerophosphate, 10 mM HEPES, pH7.4, 70 mM NaCl, 2 mM EDTA and 1% SDS and protein lysates were diluted 1:15 with supplied Assay buffer prior to the execution of the assay. The subsequent steps were carried out essentially as recommended by the manufacturer.
SMILES,melting point,further results
"CCOC(=O)c1cn2ccnc2cc1Nc1ccc(I)cc1F [Example 1, 7-(2-Fluoro-4-iodo-phenylamino)-imidazo[1,2-a]pyridine-6-carboxylic acid ethyl ester]",132 to 134 °C,–
"NC(=O)c1cn2ccnc2cc1Nc1ccc(I)cc1F [Example 3, 7-(2-Fluoro-4-iodo-phenylamino)-imidazo[1.2-a]pyridine-6-carboxylic acid amide]",–,IC50 [1]: 1.9 nM
"O=C(NCCO)C1=CN2CCN=C2C=C1Nc1ccc(I)cc1F [Example 4, 7-(2-Fluoro-4-iodo-phenylamino)-2,3-dihydro-imidazo[1.2-a]pyridine-6-carboxylic acid (2-hydroxy-ethyl)-amide; hydroiodide salt]",–,IC50 [2]: 177 nM

# Second part, led by results:
melting point,SMILES,further results
201 to 204 °C,"CCOC(=O)c1cn2c(C)nnc2cc1Nc1ccc(I)cc1F [Example 5, 7-(2-Fluoro-4-iodo-phenylamino)-3-methyl-[1,2,4]triazolo[4.3-a]pyridine-6-carboxylic acid ethyl ester]",–
300 to 310 °C (dec.),"Cc1nnc2cc(Nc3ccc(I)cc3F)c(C(N)=O)cn12 [Example 6, 7-(2-Fluoro-4-iodo-phenylamino)-3-methyl-[1,2,4]triazolo[4,3-a]pyridine-6-carboxylic acid amide]",–
